Reference: patent publication US20250215039A1, “NUCLEOSIDES FOR TREATING CANCER” (PRIMEFOUR THERAPEUTICS, INC., priority 2022, published 2025)
Like-named read-outs stand apart in the source and are kept apart here.

What was measured:
cancer cell lines = test: Cancer cell proliferation activity (CellTiterGlo, 72 h); type: cell-based; conditions: 72 h, 72 h, read-out: IC50 cell proliferation
Procedure, shortened: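 Readout is CellTiterGlo luminescence after 72 h compound exposure (0.1% DMSO final), started one day post-seeding, at 37 °C.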

[1] = target: human cytidine deaminase (CDA) (Homo sapiens, UniProt P32320); test: Metabolism by human cytidine deaminase (CDA), substrate absorbance at 290 nm
Chain of human cytidine deaminase (CDA) (P32320 whole entry): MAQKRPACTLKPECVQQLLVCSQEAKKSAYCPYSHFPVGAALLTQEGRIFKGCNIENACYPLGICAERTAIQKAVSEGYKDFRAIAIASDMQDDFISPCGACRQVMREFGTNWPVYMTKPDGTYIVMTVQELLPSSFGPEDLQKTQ
Method: Transfer 7.2 μl of each of the substrate DMSO stock in step 2 into a 500 μl 96-Well V-bottom Microplate, clear SBS footprint, cat #P-96-450V-C
Add 352.8 μl assay buffer to the wells
For deaminated product compounds mix 4 μl product with 196 μl assay buffer
This was incubated at 37° C. for 1 h. 200 μl of this mixture was transferred into the assay plate to serve as the product control.
Product+buffer: mix 80 ul of the 2.5× intermediate product stocks (from step 3) with 120 ul assay buffer into product control (no enzyme) wells
Incubate the plate alongside the 20 nM CDA enzyme intermediate stock at 37° C. to temperature equilibrate reagents
Add 120 μl of the 20 nM enzyme mix into the Substrate+CDA wells and start reading at 290 nm every 30 s for about 60 min
50 and 200 uM substrate and product
In 100 mM Tris, pH 7.5, 100 mM KCl, 0.8% carryover DMSO
5 min incubation at 37° C.
Absorbance at 290 nm every 30 s at 37° C. for 1 h using FlexStation 3
Convert A290 to concentration of substrate remaining at time t after enzyme addition:
[formula] • where: • St=absorbance reading of: substrate+CDA wells at time t • So=Average absorbance reading of: substrate+buffer wells • Po=Average absorbance reading of: product+buffer wells • [S]t=initial substrate concentration • Use GraphPad to plot [substrate] against time to calculate initial velocity or slope (μMs^−1) i.e. the linear range of each curve • Express rate in s^−1 by dividing initial velocity by the total enzyme concentration.
Plot rate against [substrate] and fit data to standard Michaelis Menten equation to obtain kcat and KM parameters.

C[C@]1(CO)O[C@@H](n2ccc(N)nc2=O)C(F)(F)[C@@H]1O [Cpd. No. 190, 4-amino-1-((2R,4R,5R)-3,3-difluoro-4-hydroxy-5-(hydroxymethyl)-5-methyltetrahydrofuran-2-yl)pyrimidin-2(1H)-one]
IC50 (cancer cell lines; 5637 (bladder)): 3.87 µM | IC50 (cancer cell lines; CLS439 (bladder)): > 50 µM | IC50 (cancer cell lines; HS729 (muscle)): 4.74 µM | IC50 (cancer cell lines; J82 (bladder)): > 50 µM | IC50 (cancer cell lines; JAR (placenta)): > 50 µM | IC50 (cancer cell lines; MT3 (breast)): 1.08 µM | IC50 (cancer cell lines; PANCI (pancreas)): > 50 µM | IC50 (cancer cell lines; PC3 (prostate)): 1.46 µM | IC50 (cancer cell lines; RD (muscle)): > 50 µM | IC50 (cancer cell lines; T24 (bladder)): 3.21 µM | IC50 (cancer cell lines; Homo sapiens, 22Rv1, 72 h, 22RV1 (prostate)): > 50 µM | IC50 (cancer cell lines; Homo sapiens, 786-0, 72 h, 786O (kidney)): > 50 µM | IC50 (cancer cell lines; Homo sapiens, A204, 72 h, A204 (muscle)): 0.17 µM | IC50 (cancer cell lines; Homo sapiens, A549, 72 h, A549 (lung)): 2.9 µM | IC50 (cancer cell lines; Homo sapiens, A673, 72 h, A673 (bone)): > 50 µM | IC50 (cancer cell lines; Homo sapiens, A2780, 72 h, A2780 (ovary)): 5.39 µM | IC50 (cancer cell lines; Homo sapiens, A-375, 72 h, A375 (skin)): > 50 µM | IC50 (cancer cell lines; Homo sapiens, A-431, 72 h, A431 (skin)): 3.8 µM | IC50 (cancer cell lines; Homo sapiens, ACHN, ACHN (kidney)): 2.85 µM | IC50 (cancer cell lines; Homo sapiens, ASPC1, 72 h, ASPC1 (pancreas)): > 50 µM | IC50 (cancer cell lines; Homo sapiens, BT-20, 72 h, BT20 (breast)): > 50 µM | IC50 (cancer cell lines; Homo sapiens, BXPC-3, 72 h, BXPC3 (pancreas)): > 50 µM | IC50 (cancer cell lines; Homo sapiens, C-33-A, C33A (endometrial)): 2.08 µM | IC50 (cancer cell lines; Homo sapiens, CAKI-1, 72 h, CAKI1 (kidney)): 1.07 µM | IC50 (cancer cell lines; Homo sapiens, COLO 205, 72 h, COLO205 (colon)): 3.03 µM | IC50 (cancer cell lines; Homo sapiens, COLO-678, 72 h, COLO678 (colon)): > 50 µM | IC50 (cancer cell lines; Homo sapiens, Ca-Ski, CASKI (endometrial)): > 50 µM | IC50 (cancer cell lines; Homo sapiens, Caco-2, 72 h, CACO2 (colon)): > 50 µM | IC50 (cancer cell lines; Homo sapiens, Calu-6, 72 h, CALU6 (lung)): 5.25 µM | IC50 (cancer cell lines; Homo sapiens, DLD-1, 72 h, DLD1 (colon)): > 50 µM | IC50 (cancer cell lines; Homo sapiens, DU-145, 72 h, DU145 (prostate)): 3.18 µM | IC50 (cancer cell lines; Homo sapiens, EFO-21, 72 h, EFO21 (ovary)): > 50 µM | IC50 (cancer cell lines; Homo sapiens, EJ-28, 72 h, EJ28 (bladder)): > 50 µM | IC50 (cancer cell lines; Homo sapiens, Granta-519, 72 h, GRANTA-519 (hematological)): 1.24 µM | IC50 (cancer cell lines; Homo sapiens, HCT-15, 72 h, HCT15 (colon)): 3.1 µM | IC50 (cancer cell lines; Homo sapiens, HCT-116, 72 h, HCT116 (colon)): 3.28 µM | IC50 (cancer cell lines; Homo sapiens, HEK293, 72 h, HEK293 (kidney)): > 50 µM | IC50 (cancer cell lines; Homo sapiens, HL-60, 72 h, HL-60 (hematological)): > 50 µM | IC50 (cancer cell lines; Homo sapiens, HT-29, 72 h, HT29 (colon)): > 50 µM | IC50 (cancer cell lines; Homo sapiens, HT-1080, 72 h, HT1080 (connective tissue)): 4.73 µM | IC50 (cancer cell lines; Homo sapiens, HeLa, HELA (endometrial)): > 50 µM | IC50 (cancer cell lines; Homo sapiens, HepG2, 72 h, HEPG2 (liver)): > 50 µM | IC50 (cancer cell lines; Homo sapiens, Hs-578T, HS578T (breast)): > 50 µM | IC50 (cancer cell lines; Homo sapiens, IGROV-1, 72 h, IGROV1 (ovary)): 4.31 µM | IC50 (cancer cell lines; Homo sapiens, IMR-90, 72 h, IMR90 (lung)): > 50 µM | IC50 (cancer cell lines; Homo sapiens, JEG-3, 72 h, JEG3 (placenta)): > 50 µM | IC50 (cancer cell lines; Homo sapiens, JIMT-1, 72 h, JIMT1 (breast)): 2.23 µM | IC50 (cancer cell lines; Homo sapiens, K562, 72 h, K-562 (hematological)): > 50 µM | IC50 (cancer cell lines; Homo sapiens, Kasumi 1, 72 h, KASUMI-1 (hematological)): 2.23 µM | IC50 (cancer cell lines; Homo sapiens, L-363, 72 h, L-363 (hematological)): > 50 µM | IC50 (cancer cell lines; Homo sapiens, LoVo, LOVO (colon)): 2.74 µM | IC50 (cancer cell lines; Homo sapiens, MCF7, 72 h, MCF7 (breast)): > 50 µM | IC50 (cancer cell lines; Homo sapiens, MDA-MB-231, 72 h, MDAMB231 (breast)): 2.23 µM | IC50 (cancer cell lines; Homo sapiens, MDA-MB-435, 72 h, MDAMB435 (skin)): 4.7 µM | IC50 (cancer cell lines; Homo sapiens, MDA-MB-436, 72 h, MDAMB436 (breast)): > 50 µM | IC50 (cancer cell lines; Homo sapiens, MDA-MB-468, 72 h, MDAMB468 (breast)): > 50 µM | IC50 (cancer cell lines; Homo sapiens, MG-63, 72 h, MG63 (bone)): > 50 µM | IC50 (cancer cell lines; Homo sapiens, MHH-ES-1, 72 h, MHHES1 (bone)): > 50 µM | IC50 (cancer cell lines; Homo sapiens, MIA PaCa-2, 72 h, MIAPACA2 (pancreas)): > 50 µM | IC50 (cancer cell lines; Homo sapiens, MINO, MINO (hematological)): 0.43 µM | IC50 (cancer cell lines; Homo sapiens, MV4-11, 72 h, MV4-11 (hematological)): 3.8 µM | IC50 (cancer cell lines; Homo sapiens, NCI-H23, 72 h, NCI-H23 (lung)): > 50 µM | IC50 (cancer cell lines; Homo sapiens, NCI-H82, 72 h, NCIH82 (lung)): > 50 µM | IC50 (cancer cell lines; Homo sapiens, NCI-H292, 72 h, NCIH292 (lung)): > 50 µM | IC50 (cancer cell lines; Homo sapiens, NCI-H460, 72 h, NCIH460 (lung)): 5.68 µM | IC50 (cancer cell lines; Homo sapiens, OVCAR-3, 72 h, OVCAR3 (ovary)): 2.57 µM | IC50 (cancer cell lines; Homo sapiens, OVCAR-4, 72 h, OVCAR4 (ovary)): > 50 µM | IC50 (cancer cell lines; Homo sapiens, PLC-PRF-5, 72 h, PLCPRF5 (liver)): > 50 µM | IC50 (cancer cell lines; Homo sapiens, Panc1005, 72 h, PANC1005 (pancreas)): > 50 µM | IC50 (cancer cell lines; Homo sapiens, Ramos, RAMOS (hematological)): 2.69 µM | IC50 (cancer cell lines; Homo sapiens, SAOS-2, 72 h, SAOS2 (bone)): 1.49 µM | IC50 (cancer cell lines; Homo sapiens, SF-268, 72 h, SF268 (brain)): 3.8 µM | IC50 (cancer cell lines; Homo sapiens, SF-295, 72 h, SF295 (brain)): > 50 µM | IC50 (cancer cell lines; Homo sapiens, SK-BR-3, 72 h, SKBR3 (breast)): 4.56 µM | IC50 (cancer cell lines; Homo sapiens, SK-HEP1, 72 h, SKHEP1 (liver)): 2.54 µM | IC50 (cancer cell lines; Homo sapiens, SK-LMS-1, 72 h, SKLMS1 (uterus)): > 50 µM | IC50 (cancer cell lines; Homo sapiens, SK-MEL-5, 72 h, SKMEL5 (skin; SKMELS [sic] in Table 9E)): > 50 µM | IC50 (cancer cell lines; Homo sapiens, SK-MEL-28, 72 h, SKMEL28 (skin)): > 50 µM | IC50 (cancer cell lines; Homo sapiens, SK-N-AS, SKNAS (brain)): > 50 µM | IC50 (cancer cell lines; Homo sapiens, SK-N-SH, SKNSH (brain)): > 50 µM | IC50 (cancer cell lines; Homo sapiens, SK-OV-3, 72 h, SKOV3 (ovary)): > 50 µM | IC50 (cancer cell lines; Homo sapiens, SNB-75, 72 h, SNB75 (brain)): > 50 µM | IC50 (cancer cell lines; Homo sapiens, SU-DHL10, 72 h, SU-DHL-10 (hematological)): 2.73 µM | IC50 (cancer cell lines; Homo sapiens, SU-DHL-6, 72 h, SU-DHL-6 (hematological)): 2.87 µM | IC50 (cancer cell lines; Homo sapiens, SW-620, 72 h, SW620 (colon)): 4.6 µM | IC50 (cancer cell lines; Homo sapiens, TE-671, 72 h, TE671 (muscle)): > 50 µM | IC50 (cancer cell lines; Homo sapiens, THP-1, 72 h, THP-1 (hematological)): 3.44 µM | IC50 (cancer cell lines; Homo sapiens, U2OS, U20S (bone; U2OS in Table 9E)): > 50 µM | IC50 (cancer cell lines; Homo sapiens, U-87 MG, U87MG (brain)): 2.91 µM | IC50 (cancer cell lines; Homo sapiens, UMUC3, 72 h, UMUC3 (bladder)): > 50 µM | IC50 (cancer cell lines; Homo sapiens, UO-31, 72 h, UO31 (kidney)): 8.13 µM | IC50 (cancer cell lines; Homo sapiens, WSU-NHL, WSU-NHL (hematological)): 1.67 µM | IC50 (cancer cell lines; NCI-H358M, NCIH358M (lung)): 1.04 µM | IC50 (cancer cell lines; PBMC, PBMC (hematological)): 2.61 µM | IC50 (cancer cell lines; RD-ES, RDES (bone)): > 50 µM | metabolism (deamination) by human CDA (line graph) ([1]; 12 nM CDA, 50 and 200 uM substrate, 37° C., pH 7.5, figure legends FIG. 4-9): not metabolized | substrate conversion by CDA (Inactive) ([1]; rate of substrate conversion at 200 μM, could not be fitted): Inactive
